Experimental data from the supplement of paper PMC10627819.

How the values were obtained:
S. aureus Newman [1] = assay: fitness (endpoint OD595 vs no drug) (fraction); higher = more growth
Outline: (§1)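 At 37 °C, bacteria in TSB, LB Lennox or CY were grown in 384-well plates from a starting OD595 of 0.01. OD595 was measured every 30 min for 14 h, with the first reading used as background. Fitness is the optical density at the switch to stationary phase as a fraction of the robust mean of no-drug control wells, capped at 1.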

B. subtilis 168 [2] = assay: as above
Outline: as §1

S. aureus DSM 20231 [3] = assay: as above
Outline: as §1

S. pneumoniae D39V [4] = assay: as above
Outline: as §1

S. aureus Newman [5] = assay: Bliss interaction score (quartile over a dose matrix) (fitness difference); higher = more antagonism (negative = synergy)
Outline: (§2)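 Fitness was derived from optical density at entry into stationary phase, divided by the robust mean of the no-drug wells on the same plate. That reading was taken as OD595, and the ratio was capped at 1. Single-drug fitness was inferred from the combination data. The Bliss score, observed fitness minus the expected product of single-drug fitness, was summarised as quartiles over technical, biological and donor/recipient replicates.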

B. subtilis 168 [6] = assay: as above
Outline: as §2

S. aureus DSM 20231 [7] = assay: as above
Outline: as §2

S. pneumoniae D39V [8] = assay: as above
Outline: as §2
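Throughout, for Bliss interaction score (quartile over a dose matrix): first quartile when negative (synergy) and third quartile when positive (antagonism).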

Cc1onc(-c2ccccc2)c1C(=O)N[C@@H]1C(=O)N2[C@@H]1SC(C)(C)[C@@H]2C(=O)O [Oxacillin] + CN[C@@H]1[C@H](O)[C@H](NC)[C@H]2O[C@@]3(O)C(=O)C[C@@H](C)O[C@H]3O[C@@H]2[C@H]1O [Spectinomycin]
fitness
Settings	partner 2 µg/mL	partner 4 µg/mL	partner 8 µg/mL	partner 16 µg/mL
B. subtilis 168 [2], first compound 0.002 µg/mL	0.966	0.984	0.899	–
B. subtilis 168 [2], first compound 0.004 µg/mL	≥ 1	≥ 1	0.874	–
B. subtilis 168 [2], first compound 0.008 µg/mL	0.982	0.993	0.87	–
S. aureus DSM 20231 [3], first compound 0.0156 µg/mL	–	0.779	0.802	0.764
S. aureus DSM 20231 [3], first compound 0.0312 µg/mL	–	0.681	0.684	0.665
S. aureus DSM 20231 [3], first compound 0.0625 µg/mL	–	0.482	0.497	0.489
S. aureus Newman [1], first compound 0.0156 µg/mL	–	0.757	0.751	0.766
S. aureus Newman [1], first compound 0.0312 µg/mL	–	0.688	0.672	0.586
S. aureus Newman [1], first compound 0.0625 µg/mL	–	0.596	0.555	0.528
S. pneumoniae D39V [4], first compound 0.01 µg/mL	–	0.94	0.93	0.819
S. pneumoniae D39V [4], first compound 0.02 µg/mL	–	0.884	0.889	0.788
S. pneumoniae D39V [4], first compound 0.04 µg/mL	–	0.373	0.455	0.415

fitness, one replicate
Settings	first compound 0.0156 µg/mL	first compound 0.0312 µg/mL	first compound 0.0625 µg/mL	first compound 0.075 µg/mL	first compound 0.15 µg/mL	first compound 0.3 µg/mL
B. subtilis 168 [2], partner 2 µg/mL	–	–	–	0.467	0.0332	0.0357
B. subtilis 168 [2], partner 4 µg/mL	–	–	–	0.394	0.034	0.0431
B. subtilis 168 [2], partner 8 µg/mL	–	–	–	0.0241	0.0342	0.0299
S. aureus DSM 20231 [3], partner 32 µg/mL	0.601	0.628	0.509	–	–	–
S. aureus DSM 20231 [3], partner 64 µg/mL	0.0615	0.0592	0.0362	–	–	–
S. aureus Newman [1], partner 32 µg/mL	0.483	0.272	0.135	–	–	–
S. aureus Newman [1], partner 64 µg/mL	0.0551	0.0867	0.0035	–	–	–

Settings	Bliss interaction score
B. subtilis 168 [6]	0.0285
S. aureus DSM 20231 [7]	-0.0526
S. aureus Newman [5]	-0.0743
S. pneumoniae D39V [8]	0.0929
